Results reported in US20130236610A1, “COMPOSITIONS AND METHODS FOR INHIBITING POTATO PATHOGENS” (UNIVERSITY OF IDAHO, priority 2010, published 2013).

Experiments:
Assay type in all cases: cell-based
Colletotrichum coccodes [1] = experiment: Volatile exposure of pathogen cultures on PDA in sealed mason jars, radial growth (Example 1); conditions: pure volatile, 7 days at 23° C
Experimental: (§1) In this study, acetaldehyde and 2E-hexenal were chosen as prototype volatiles in order to investigate the use of plant volatiles for the control of potato blemish pathogens in fresh-pack potato packaging. The two main potato blemish disease pathogens, Colletotrichum coccodes (black dot) and Helminthosporium solani (silver scurf) were used in the study. Cultures of the two pathogens, grown on PDA, were exposed to the pure volatiles in sealed mason jars for 7 days at 23° C. Radial fungal growth and the concentration of the volatile were measured daily and the concentration required to inhibit fungal growth was determined. […] 2E-hexenal could be used to control these and other pathogens and extend the storability and shelf-life of potatoes.

Helminthosporium solani [2] = experiment: as above; conditions: pure volatile, 7 days at 23° C
Experimental: as §1

Erwinia carotovora [3] = experiment: as above; conditions: pure volatile, 7 days at 23° C
Erwinia carotovora [4] = experiment: Pure volatile in 1L jars above plates containing the pathogens, colony diameter (Example 2); conditions: 2.5 μL/L volatile, 1L jar, 23 degree C
Experimental: (§2) […] were chosen as prototype volatiles to investigate the use of plant volatiles for the control of potato blemish pathogens. Three main potato blemish pathogens were used in the study: Erwinia carotovora, Colletotrichum coccodes and Helminthosporium solani.
(§3) 1L jars were used. Pure volatile (2.5-10 μt/L) was inserted into the jars onto the side of the jar above 6cm plates containing the pathogens. Controls and treatments were incubated at 23 degree C. until the control filled the plate. Diameter of the colony (mm) from control and treatments were evaluated daily using calipers.

Colletotrichum coccodes [5] = experiment: as above; conditions: 2.5 μL/L volatile, 1L jar, 23 degree C
Experimental: as §2, §3

Helminthosporium solani [6] = experiment: as above; conditions: 2.5 μL/L volatile, 1L jar, 23 degree C
Experimental: as §2, §3

Measured: inhibition of pathogen growth

CCC/C=C/C=O [2E-hexenal]
nearly complete inhibition: Colletotrichum coccodes [1] | Helminthosporium solani [2] | Erwinia carotovora [3]

CCC/C=C/C=O [2E-Hexanal]
nearly complete inhibition: Erwinia carotovora [4] | Colletotrichum coccodes [5] | Helminthosporium solani [6]
